Reference: patent US9266922B2, “Antigen peptide and uses thereof” (priority 2011, dated 2016)
Where two headings read alike, the source gives them in different places. Residues, ends and D or L forms follow the SMILES beside them.

Tests used:
[1] = biological target: T1, HLA-A*0201 (Homo sapiens, UniProt P04439, D140Y/D185E/D98H/E176V/E277Q/G131W/G231S/I119V/I121R/I166T/I218V/L300P/L318F/N151K/N90K/P208A/P217A/Q86G/Q94H/R138H/R169H/T345S); test: iTOPIA EDS MHC peptide binding assay; conditions: HLA-A*0201 monomer, relative to positive control peptide, 21° C. for 18 h
Text: MHC peptide binding assay using iTOPIA EDS
Microtiter 96 well plates containing HLA class I MHC monomer loaded with the human β2-microglobulin and a “placeholder” peptide were used to evaluate peptide binding, affinity, and off-rate.
The 502 nectin4 nonapeptides were first evaluated for their ability to bind to each MHC molecule in the peptide binding assay. In this assay, the placeholder peptides were stripped from the MHC class I monomer complexes coated on plastic, which leaves the MHC class I heavy chain available as a binding partner for candidate peptides in the presence of human β2-microglobulin.
Peptide binding was performed at 21° C. for 18 h. Revelation was done using an anti HLA-ABC-FITC mAb that binds to refolded MHC complex conformation. The relative fluorescent intensity was read using a fluorimeter (Molecular Devices, SpectraMax Gemini, Sunnyvale, Calif., USA).
Peptides with a binding>30% of the positive control peptide were selected as “binder” and subsequently analyzed for affinity (ED50) and off-rate (T1/2).

[2] = biological target: T1, HLA-A*0201; test: biochemical; type: binding
[3] = biological target: T1, HLA-A*0201; test: iScore calculation (iTOPIA system software); conditions: multiparametric score of binding, off-rate and affinity
[4] = biological target: T2, HLA A*0201 on CEM.T2 cell line (Homo sapiens, UniProt P04439, D140Y/D185E/D98H/E176V/E277Q/G131W/G231S/I119V/I121R/I166T/I218V/L300P/L318F/N151K/N90K/P208A/P217A/Q86G/Q94H/R138H/R169H/T345S); test: Cellular binding assay, HLA stabilization on CEM.T2 cells; type: cell-based; conditions: for CEM.T2 % Binding: 100 μM peptide, 37° C. for 4 h, FACS anti HLA-A2, relative to HBV positive control peptide
T2 construct: This cell line expresses HLA A*0201 but is deficient for TAP transporter; endogenous in cells; host or cells: CEM.T2 (T2) cell line
Procedure: The CEM.T2 cell line (T2) is defective in the processing of proteins for presentation by MHC class 1 molecules. This cell line expresses HLA A*0201 but is deficient for TAP transporter. T2 is classically used to assess the Peptide/HLA-A*0201 Complex Stability[H. W. Nijman et al., 1993]
For HLA-A2*0201 stabilization, T2 cells (2×10^5/well) were incubated in serum-free RPMI (Gibco®-France) with 100 μM of selected peptide, at 37° C. for 4 h. Cells were washed two times with PBS supplemented with 1% BSA and stained with fluorescein isothiocyanate-conjugated anti HLA-A2 (Clone BB7.2) (BD Bioscience Pharmingen-France-) at 4° C. for 45 min. After 3 washes, cells were fixed in PBS supplemented with 2% paraformaldehyde and analyzed by FACS (FACScan, BD Bioscience). The percentage of peptide binding was calculated as follows: % Binding={(MFI peptide sample−MFI Neg control)/(MFI Pos control−MFI Neg control)}×100
Negative control was done without peptide.

[5] = biological target: T2, HLA A*0201 on CEM.T2 cell line; test: Cellular dissociation assay on CEM.T2 cells; type: cell-based; conditions: after Brefeldin A 1 h and 3 h in serum-free RPMI at 37° C. (4 h)
Procedure: Cellular Dissociation Assay
After HLA-A2*0201 stabilization with peptides at 37° C. for 4 h, T2 cells were incubated for 1 h, in serum-free RPMI containing Brefeldin A (10 μg/ml), an inhibitor of the transport of secretory and lysosomal proteins [G. J. Strous et al., 1993]. After 3 washes, T2 cells were incubated for 3 h in serum-free RPMI at 37° C. Binding was then measured by FACS and after 4 h incubation. Percentage of Residual Binding (% RB) was calculated as follows: […]

[6] = peptide concentration giving 50% of optimal binding, 10^−4 to 10^−9 M, 21° C. for 18 h, read-out: Affinity (ED50)

| Molecule | % Binding [1] [%] | EC50 [2, 6] [nM] | iScore [3] | CEM.T2 % Binding [4] [%] | CEM.T2 % Residual Binding [5] [%] | HLA-A*0201 class I level on T2 cells ([4]; flow cytometry, FIG. 3A and 3B) | EC50 ([2]; FIG. 2A, peptide concentration 10^−4 to 10^−9 M, read-out: estimated dose to reach 50% maximal binding (ED50)) [nM] |
| --- | --- | --- | --- | --- | --- | --- | --- |
| CC[C@H](C)[C@H](N)C(=O)N[C@@H](CC(C)C)C(=O)N[C@@H](Cc1c[nH]cn1)C(=O)N[C@H](C(=O)N[C@@H](CO)C(=O)N[C@@H](Cc1ccccc1)C(=O)N[C@@H](CC(C)C)C(=O)N[C@@H](C)C(=O)N[C@@H](CCC(=O)O)C(=O)O)C(C)C [Peptide 239] (H-ILHVSFLAE-OH; N-terminus and C-terminus assumed) | 61 | 200 | 0.51 | 10 | 0 | – | – |
| 122: nectin4 nonapeptide with a low iScore; the number represents where the peptide starts in the protein sequence (EGEYECRVS; UniProt Q96NY8 122-130, looked up, fragment) [Peptide 122] | – | – | low | – | – | does not increase HLA level on T2 cells | – |
| CC(C)C[C@H](NC(=O)[C@H](CC(C)C)NC(=O)[C@H](CC(C)C)NC(=O)[C@@H](N)CC(C)C)C(=O)N[C@@H](C)C(=O)N[C@@H](CO)C(=O)N[C@@H](Cc1ccccc1)C(=O)N[C@H](C(=O)NCC(=O)O)[C@@H](C)O [Peptide 19] (H-LLLLASFTG-OH; N-terminus and C-terminus assumed) | 75 | 60 | 0.659 | 17 | 0 | – | – |
| CC(C)C[C@H](NC(=O)[C@H](C)N)C(=O)N[C@@H](CC(C)C)C(=O)N[C@@H](Cc1ccccc1)C(=O)N[C@@H](CS)C(=O)N[C@@H](CC(C)C)C(=O)N[C@@H](CC(C)C)C(=O)N[C@H](C(=O)N[C@H](C(=O)O)C(C)C)C(C)C [Peptide 358] (H-ALLFCLLVV-OH; N-terminus and C-terminus assumed) | 53 | 200 | 0.71 | 26 | 26 | – | – |
| CC(C)C[C@H](NC(=O)[C@H](CS)NC(=O)[C@H](Cc1ccccc1)NC(=O)[C@H](CC(C)C)NC(=O)[C@@H](N)CC(C)C)C(=O)N[C@@H](CC(C)C)C(=O)N[C@H](C(=O)N[C@H](C(=O)N[C@H](C(=O)O)C(C)C)C(C)C)C(C)C [Peptide 359] (H-LLFCLLVVV-OH; N-terminus and C-terminus assumed) | 67 | 500 | 0.674 | 7 | 23 | – | – |
| CC[C@H](C)[C@H](NC(=O)[C@@H](N)C(C)C)C(=O)N[C@@H](C)C(=O)N[C@@H](C)C(=O)N[C@@H](CC(C)C)C(=O)N[C@@H](CC(C)C)C(=O)N[C@@H](Cc1ccccc1)C(=O)N[C@@H](CS)C(=O)N[C@@H](CC(C)C)C(=O)O [Peptide 355] (H-VIAALLFCL-OH; N-terminus and C-terminus assumed) | 59 | 30 | 0.888 | 18 | 24 | – | – |
| CC[C@H](C)[C@H](NC(=O)[C@H](Cc1c[nH]cn1)NC(=O)[C@H](Cc1c[nH]c2ccccc12)NC(=O)[C@H](CC(C)C)NC(=O)[C@H](CC(N)=O)NC(=O)[C@H](CCC(N)=O)NC(=O)[C@@H](N)CC(=O)O)C(=O)NCC(=O)N[C@@H](CCCNC(=N)N)C(=O)O [Peptide 255] | 62 | 500 | 0.539 | 6 | 0 | – | – |
| CC[C@H](C)[C@H](NC(=O)[C@@H](NC(=O)CN)C(C)C)C(=O)N[C@@H](C)C(=O)N[C@@H](C)C(=O)N[C@@H](CC(C)C)C(=O)N[C@@H](CC(C)C)C(=O)N[C@@H](Cc1ccccc1)C(=O)N[C@@H](CS)C(=O)O [Peptide 354] (H-GVIAALLFC-OH; N-terminus and C-terminus assumed) | 61 | 90 | 0.845 | 10 | 0 | – | – |
| CC(C)[C@H](NC(=O)CNC(=O)[C@@H](NC(=O)[C@@H](NC(=O)[C@@H](NC(=O)[C@@H](NC(=O)[C@H](CO)NC(=O)[C@H](C)NC(=O)[C@@H](N)CO)C(C)C)C(C)C)C(C)C)C(C)C)C(=O)O [Peptide 347] (H-SASVVVVGV-OH; N-terminus and C-terminus assumed) | 64 | 200 | 0.708 | 40 | 0 | – | – |
| CC(C)[C@H](NC(=O)[C@@H](NC(=O)[C@@H](NC(=O)[C@@H](NC(=O)[C@@H](NC(=O)[C@H](CC(=O)O)NC(=O)[C@H](CO)NC(=O)[C@@H](NC(=O)CN)[C@@H](C)O)C(C)C)C(C)C)[C@@H](C)O)C(C)C)C(=O)O [Peptide 35] (H-GTSDVVTVV-OH; N-terminus and C-terminus assumed) | 63 | 300 | 0.539 | 60 | 0 | – | – |
| CC(C)C[C@H](N)C(=O)N[C@H](C(=O)N[C@@H](CO)C(=O)N[C@@H](C)C(=O)N[C@@H](CO)C(=O)N[C@H](C(=O)N[C@H](C(=O)N[C@H](C(=O)N[C@H](C(=O)O)C(C)C)C(C)C)C(C)C)C(C)C)C(C)C [Peptide 345] (H-LVSASVVVV-OH; N-terminus and C-terminus assumed) | 51 | 60 | 0.626 | 11 | 0 | – | – |
| CC(C)C[C@H](NC(=O)[C@H](CCCNC(=N)N)NC(=O)[C@H](C)NC(=O)[C@H](CCC(N)=O)NC(=O)[C@@H](N)Cc1ccccc1)C(=O)N[C@@H](CCCNC(=N)N)C(=O)N[C@@H](CC(C)C)C(=O)N[C@@H](CCCNC(=N)N)C(=O)N[C@H](C(=O)O)C(C)C [Peptide 137] (H-FQARLRLRV-OH; N-terminus and C-terminus assumed) | 69 | – | 0.66 | 30 | 72 | – | – |
| CC[C@H](C)[C@H](NC(=O)[C@@H](NC(=O)CNC(=O)[C@@H](NC(=O)[C@@H](NC(=O)[C@@H](N)C(C)C)C(C)C)C(C)C)C(C)C)C(=O)N[C@@H](C)C(=O)N[C@@H](C)C(=O)N[C@@H](CC(C)C)C(=O)O [Peptide 351, VVVGVIAAL] (H-VVVGVIAAL-OH; N-terminus and C-terminus assumed) | 58 | 30 | 0.784 | – | – | – | – |
| CC(C)C[C@H](NC(=O)CNC(=O)[C@H](Cc1ccc(O)cc1)NC(=O)[C@H](CCCCN)NC(=O)[C@H](CO)NC(=O)[C@H](Cc1c[nH]cn1)NC(=O)[C@H](CC(C)C)NC(=O)[C@H](CC(C)C)NC(=O)[C@H](C)N)C(=O)O [Peptide 80] (H-ALLHSKYGL-OH; N-terminus and C-terminus assumed) | 87 | 1000 | 0.815 | – | – | – | ~100 |
